Source: ChEMBL document CHEMBL3885881, “DrugMatrix”

Organism: Rattus norvegicus
Assay: DrugMatrix - Regimen: Daily Repeat
Format: toxicity, organism-based, Sprague-Dawley
Design: regimen Daily Repeat, gender Male, age 6-8 weeks
Settings: in vivo, po, route oral GAVAGE, vehicle 100 % WATER; for ABSOLUTE BASOPHIL / ABSOLUTE EOSINOPHIL / ABSOLUTE LYMPHOCYTE / ABSOLUTE MONOCYTE / ABSOLUTE SEGMENTED NEUTROPHIL / BASOPHIL / EOSINOPHIL / ERYTHROCYTE COUNT / HEMATOCRIT / HEMOGLOBIN / LEUKOCYTE COUNT / LYMPHOCYTE / MEAN CORPUSCULAR HEMOGLOBIN / MEAN CORPUSCULAR HEMOGLOBIN CONCENTRATION / MEAN CORPUSCULAR VOLUME / MONOCYTE / NEUTROPHIL / NUCLEATED RED BLOOD CELLS / PLATELET COUNT: tissue Blood; for ALANINE AMINOTRANSFERASE / ALBUMIN / ALKALINE PHOSPHATASE / ASPARTATE AMINOTRANSFERASE / BLOOD UREA NITROGEN / CARBON DIOXIDE / CHLORIDE / CHOLESTEROL / CREATINE PHOSPHOKINASE / CREATININE / GLUCOSE / LACTATE DEHYDROGENASE / LIPASE / PHOSPHORUS / POTASSIUM / SODIUM / TOTAL BILIRUBIN / TOTAL PROTEIN / URIC ACID: tissue Plasma
[1] = 100 mg/kg, 120 h, dose level Low, time 5 day
[2] = 2500 mg/kg, 72 h, dose level High, time 3 day
[3] = 2500 mg/kg, 120 h, dose level High, time 5 day

## NCC1(CC(=O)O)CCCCC1 [GABAPENTIN]
[1]
  ABSOLUTE BASOPHIL: 0 CELLS/uL
  ABSOLUTE EOSINOPHIL: 0 CELLS/uL
  ABSOLUTE LYMPHOCYTE: 13861.67 CELLS/uL
  ABSOLUTE MONOCYTE: 159 CELLS/uL
  ABSOLUTE SEGMENTED NEUTROPHIL: 1246 CELLS/uL
  BASOPHIL: 0%
  EOSINOPHIL: 0%
  ERYTHROCYTE COUNT: 5.64 x10E6/uL
  HEMATOCRIT: 35.7%
  HEMOGLOBIN: 14.27 G/DL
  LEUKOCYTE COUNT: 15.27 x10E3/uL
  LYMPHOCYTE: 91%
  MEAN CORPUSCULAR HEMOGLOBIN: 25.33 pg
  MEAN CORPUSCULAR HEMOGLOBIN CONCENTRATION: 39.97 G/DL
  MEAN CORPUSCULAR VOLUME: 63.33 fL
  MONOCYTE: 1%
  NEUTROPHIL: 8%
  NUCLEATED RED BLOOD CELLS: 0 /100WBC
  PLATELET COUNT: 1093 x10E3/uL
  ALANINE AMINOTRANSFERASE: 54.67 u/L
  ALBUMIN: 4.37 G/DL
  ALKALINE PHOSPHATASE: 380.67 u/L
  ASPARTATE AMINOTRANSFERASE: 86 u/L
  BLOOD UREA NITROGEN: 15.67 mg/dL
  CARBON DIOXIDE: 31.33 mmol/L
  CHLORIDE: 101.67 MEQ/L
  CHOLESTEROL: 72.33 mg/dL
  CREATINE PHOSPHOKINASE: 410.33 u/L
  CREATININE: 0.16 mg/dL
  GLUCOSE: 172.67 mg/dL
  LACTATE DEHYDROGENASE: 185.67 u/L
  LIPASE: 9.67 u/L
  PHOSPHORUS: 11.93 mg/dL
  POTASSIUM: 6 MEQ/L
  SODIUM: 144.93 MEQ/L
  TOTAL BILIRUBIN: 0.1 mg/dL
  TOTAL PROTEIN: 6.07 G/DL
  URIC ACID: 1.23 mg/dL
[2]
  ABSOLUTE BASOPHIL: 0 CELLS/uL
  ABSOLUTE EOSINOPHIL: 0 CELLS/uL
  ABSOLUTE LYMPHOCYTE: 17008 CELLS/uL
  ABSOLUTE MONOCYTE: 0 CELLS/uL
  ABSOLUTE SEGMENTED NEUTROPHIL: 1925.33 CELLS/uL
  BASOPHIL: 0%
  EOSINOPHIL: 0%
  ERYTHROCYTE COUNT: 5.55 x10E6/uL
  HEMATOCRIT: 36.63%
  HEMOGLOBIN: 14.27 G/DL
  LEUKOCYTE COUNT: 18.93 x10E3/uL
  LYMPHOCYTE: 90%
  MEAN CORPUSCULAR HEMOGLOBIN: 25.7 pg
  MEAN CORPUSCULAR HEMOGLOBIN CONCENTRATION: 38.93 G/DL
  MEAN CORPUSCULAR VOLUME: 66.03 fL
  MONOCYTE: 0%
  NEUTROPHIL: 10%
  NUCLEATED RED BLOOD CELLS: 0.33 /100WBC
  PLATELET COUNT: 1357 x10E3/uL
  ALANINE AMINOTRANSFERASE: 70.67 u/L
  ALBUMIN: 4.47 G/DL
  ALKALINE PHOSPHATASE: 324.33 u/L
  ASPARTATE AMINOTRANSFERASE: 79.67 u/L
  BLOOD UREA NITROGEN: 15 mg/dL
  CARBON DIOXIDE: 30.67 mmol/L
  CHLORIDE: 99.67 MEQ/L
  CHOLESTEROL: 90 mg/dL
  CREATINE PHOSPHOKINASE: 203.33 u/L
  CREATININE: 0.15 mg/dL
  GLUCOSE: 164.33 mg/dL
  LACTATE DEHYDROGENASE: 162 u/L
  LIPASE: 11.33 u/L
  PHOSPHORUS: 13.37 mg/dL
  POTASSIUM: 6.75 MEQ/L
  SODIUM: 143.83 MEQ/L
  TOTAL BILIRUBIN: 0.1 mg/dL
  TOTAL PROTEIN: 6.13 G/DL
  URIC ACID: 2.23 mg/dL
[3]
  ABSOLUTE BASOPHIL: 0 CELLS/uL
  ABSOLUTE EOSINOPHIL: 0 CELLS/uL
  ABSOLUTE LYMPHOCYTE: 12458 CELLS/uL
  ABSOLUTE MONOCYTE: 100 CELLS/uL
  ABSOLUTE SEGMENTED NEUTROPHIL: 1842 CELLS/uL
  BASOPHIL: 0%
  EOSINOPHIL: 0%
  ERYTHROCYTE COUNT: 5.12 x10E6/uL
  HEMATOCRIT: 32.03%
  HEMOGLOBIN: 13.13 G/DL
  LEUKOCYTE COUNT: 14.4 x10E3/uL
  LYMPHOCYTE: 86.33%
  MEAN CORPUSCULAR HEMOGLOBIN: 25.67 pg
  MEAN CORPUSCULAR HEMOGLOBIN CONCENTRATION: 41 G/DL
  MEAN CORPUSCULAR VOLUME: 62.57 fL
  MONOCYTE: 0.67%
  NEUTROPHIL: 13%
  NUCLEATED RED BLOOD CELLS: 0 /100WBC
  PLATELET COUNT: 1217 x10E3/uL
  ALANINE AMINOTRANSFERASE: 71.67 u/L
  ALBUMIN: 4.3 G/DL
  ALKALINE PHOSPHATASE: 373 u/L
  ASPARTATE AMINOTRANSFERASE: 84.67 u/L
  BLOOD UREA NITROGEN: 19.67 mg/dL
  CARBON DIOXIDE: 28.67 mmol/L
  CHLORIDE: 102.33 MEQ/L
  CHOLESTEROL: 64 mg/dL
  CREATINE PHOSPHOKINASE: 156 u/L
  CREATININE: 0.17 mg/dL
  GLUCOSE: 148.33 mg/dL
  LACTATE DEHYDROGENASE: 96.67 u/L
  LIPASE: 8 u/L
  PHOSPHORUS: 11.7 mg/dL
  POTASSIUM: 6.37 MEQ/L
  SODIUM: 144.6 MEQ/L
  TOTAL BILIRUBIN: 0.17 mg/dL
  TOTAL PROTEIN: 6.03 G/DL
  URIC ACID: 1.33 mg/dL
